# Test results reported in patent publication US5171835A, “LHRH antagonists” (The Administrators of the Tulane Educational Fund, priority 1991, dated 1992).
# Like-named read-outs stand apart in the source and are kept apart here. Square brackets hold non-standard residues; d marks the D form. dPhe(4-Cl) = N[C@H](Cc1ccc(Cl)cc1)C(=O)O; d2Nal = N[C@H](Cc1ccc2ccccc2c1)C(=O)O; dCit = NC(=O)NCCC[C@@H](N)C(=O)O; d3Pal = N[C@H](Cc1cccnc1)C(=O)O
# Experiments:
# [1] = system: membrane receptors of human breast cancer cells; test: Receptor binding, human breast cancer cell membranes (125I-[D-Trp6]LHRH as labelled ligand); settings: 125I-[D-Trp]6 LHRH labelled ligand
# Description: Affinity of peptides to rat pituitary and human breast cancer cell membranes is determined by using labelled LHRH and [D-Trp^6 ]LHRH. The assay is carried out similarly to that described by T. Kadar et al., Proc. Natl. Acad. Sci. USA, 85, 890-894 (1988) and M. Fekete et al., Endocrinology, 124, 946-955 (1989).
# [2] = system: perfused rat pituitary cell system (LH response to LH-RH); test: LH-RH inhibiting activity in superfused rat pituitary cell system; assay type: cell-based
# Description: Immediately after that, a mixture containing the same concentration of peptide and 3 nM LHRH is administered for 3 min. This was followed by four consecutive infusions of 3 nM LHRH for 3 min (1 ml perfusate) at 30 min intervals (30, 60, 90, 120 min). LH content of the 1 ml fractions collected is determined by radioimmunoassay (RIA).
# LH and FSH levels = test: In vivo effect on LH and FSH levels in castrated male rats; set-up: species or system rat; settings: s.c.
# Description: (d) In vivo effect on LH and FSH levels was measured as described by L. Bokser et al. (Proc. Natl. Acad. Sci. US, accepted for publication.) Castrated male rats weighing 350-410 grams anaesthetized with urethane were injected subcutaneously with Peptide 7 and 8 in doses of 1.25 μg and 5.0 μg. Blood samples were taken from the jugular vein before injection and 1, 2, 3, 4, 6, 24 and 48 hours after the administration of peptides. Control animals were injected only with saline. LH and FSH levels were determined by specific RIAs.
# [3] = system: Dunning R3327 prostate cancer; test: In vivo antitumor effect, Dunning R3327 prostate cancer in rats; set-up: species or system rat; settings: for Size of tumor, treated group: 25 μg/day, ± SD
# Description: Inhibition of growth of cancerous tumors in rats with compounds of Formula I was tested as described by Szende et al. (J. Natl. Cancer Inst., 82, 513-517, 1990; Szende et al., Cancer Research), 50, 3716-3721, 1990) by A. V. Schally and T. Redding (Proc. Natl. Acad. Sci. US, 84, 7279-7282, 1987), and by E. Korkut et al. (Proc. Natl. Acad. Sci. US, accepted for publication). Peptide 8 was dissolved in 45% aqueous propylene-glycol and was administered at a dose of 25 μg/day from an ALZET minipump to male rats bearing the androgen-dependent well-differentiated R3327 Dunning rat prostate adenocarcinoma. Tumors were measured weekly with microcalipers and tumor volumes were calculated. Duration of the treatment was 8 weeks, changing the minipumps at the end of the 4th week.
# LHRH = settings: prior art; cited from earlier work
# [4] = cited from earlier work
# [5] = rats bearing Dunning R3327H prostate cancer
substance,measurement,setting,value
Ac-D-Nal(2)-D-Phe(4Cl)-D-Pal(3)-Ser-Tyr-D-Lys[A2 pr(Ac)2 ]-Leu-Arg-Pro-D-Ala-NH2 [Peptide 8],Affinity Constant Ka 2,[1],6.16 µM⁻¹
same,Affinity Constant Ka 1,[1]; NB = no binding,1.57 nM⁻¹
same,% inhibition of LH response,"[2]; antagonist to LH-RH ratio 1:1, 0 min",64%
same,% inhibition of LH response,"[2]; antagonist to LH-RH ratio 1:1, 30 min",39%
same,% inhibition of LH response,"[2]; antagonist to LH-RH ratio 1:1, 60 min",27%
same,% inhibition of LH response,"[2]; antagonist to LH-RH ratio 1:1, 90 min",22%
same,% inhibition of LH response,"[2]; antagonist to LH-RH ratio 3:1, 0 min",99%
same,% inhibition of LH response,"[2]; antagonist to LH-RH ratio 3:1, 30 min",66%
same,% inhibition of LH response,"[2]; antagonist to LH-RH ratio 3:1, 60 min",47%
same,% inhibition of LH response,"[2]; antagonist to LH-RH ratio 3:1, 90 min",37%
same,activity on LH levels forty-eight hours after injection,"LH and FSH levels; dose of 1.25 μg, 48 hours, p<0.05",active
same,inhibition of LH levels forty-eight hours after injection,"LH and FSH levels; dose of 5 μg, 48 hours, p<0.05",significant inhibition
same,duration of significant decrease in the LH levels,LH and FSH levels; p<0.01,more than 24 hours
same,"Size of tumor, treated group",[3]; week 0,4001 ± 1617 mm^3
same,"Size of tumor, treated group",[3]; week 1,5459 ± 1863 mm^3
same,"Size of tumor, treated group",[3]; week 2,5892 ± 1938 mm^3
same,"Size of tumor, treated group",[3]; week 3,6357 ± 2327 mm^3
same,"Size of tumor, treated group","[3]; week 4, p<0.05",6237 ± 2974 mm^3
same,"Size of tumor, treated group","[3]; week 5, p<0.05",7447 ± 3481 mm^3
same,"Size of tumor, treated group","[3]; week 6, p<0.05",8038 ± 4374 mm^3
same,"Size of tumor, treated group","[3]; week 7, p<0.01",8129 ± 3525 mm^3
same,Tumor doubling time,"[3]; Dunning R3327H prostate cancer, rats, control group 12 days",42 days
same,body weight during the treatment,[3]; [5],did not change
same,"weight of testis, seminal vesicles and ventral prostate",[3]; [5],greatly reduced
Ac-[d2Nal][dPhe(4-Cl)][d3Pal]SY[dCit]LRP[dA]-NH2,LHRH antagonist / ovulation inhibition potency,LHRH,high inhibitory effect
same,side effects,[4]; prior art,no edematogenic and anaphylactoid side effects
"[Ac-D-Nal(2)^1,D-Phe(4Cl)^2,D-Trp^3,D-hArg(Et)2^6,D-Ala^10 ] [Detirelix]",LHRH antagonist / ovulation inhibition potency,LHRH,powerful antagonist
same,side effects,[4]; in vivo,hypotensive and bradycardic side effect
